Holding throughout (type): functional
The test system of assay [1] is Saccharomyces cerevisiae. The experiment in a line: (§1) MMV: Growth assays were conducted using the prototrophic S. cerevisiae strain JHY222. Each MMV compound (0.1 mM) was tested in minimal media containing dextrose as a carbon source (Yeast Nitrogen Base, Dextrose; YNBD). The growth rate in the presence of each MMV compound was calculated as follows: (i) the first 10 OD readings were averaged and subtracted from all OD readings of the corresponding curve to set the baseline of the growth curve to zero, and (ii) the area under the curve (AUC) was then calculated as the sum of all OD readings. […] A relative growth value was calculated as follows: AUC(DRUG) - AUC(DMSO)/AUC(DMSO); where AUC(DMSO) represents growth measured in a DMSO control well that was on the same microtiter plate of the drug-treated culture.

The subject of assay [2] is Saccharomyces cerevisiae. The assay is described as §1, with “rich” for “minimal”, “Extract, Peptone,” for “Nitrogen Base,”, “YPD).” for “YNBD).”.
Assay [3] deals with Saccharomyces cerevisiae. The description is as §1, with “ethanol and glycerol” for “dextrose”, “as” for “as a”, “sources” for “source”, “Ethanol, Glycerol; YNBEG).” for “Dextrose; YNBD).”.

Consider `COc1ccc(Nc2nc(N/N=C/c3ccc(O)cc3)nc(Nc3ccc([N+](=O)[O-])cc3)n2)cc1`, for which the results for the “Relative Growth” value in the assay with Saccharomyces cerevisiae [1], in the assay on Saccharomyces cerevisiae [2] and with Saccharomyces cerevisiae [3] were 0.2735, 0.0149 and 0.0812, respectively.
With `COc1ccc(-c2cc3c(nn2)-c2ccccc2C3=O)cc1`, the “Relative Growth” value with Saccharomyces cerevisiae [1] is -0.3119; with Saccharomyces cerevisiae [2], 0.0333; in the assay with Saccharomyces cerevisiae [3], -0.8829.
`COc1ccc(-c2nc(N3CCN(C(=O)C4CCCCC4)CC3)c3c4c(sc3n2)CCCC4)cc1`: the “Relative Growth” value in the assay on Saccharomyces cerevisiae [1] is given as 0.0845; in the assay with Saccharomyces cerevisiae [2] it was -0.0342; with Saccharomyces cerevisiae [3], -0.067.
`O=C(NC1CCN(Cc2ccccc2)CC1)c1cc2nc(-c3ccc(Cl)s3)cc(C(F)(F)F)n2n1`: the entries for the “Relative Growth” value in the assay on Saccharomyces cerevisiae [1], in the assay with Saccharomyces cerevisiae [2] and in the assay with Saccharomyces cerevisiae [3] were 0.0049, 0.0199 and -0.0027, respectively.
On to `Cc1sc(NC(=O)c2ccccc2)c(C(c2cccs2)N2CCN(c3ccccc3)CC2)c1C` (configuration not stated), for which the “Relative Growth” value in the assay with Saccharomyces cerevisiae [1] is recorded as -0.0211; in the assay with Saccharomyces cerevisiae [2], 0.0207; in the assay with Saccharomyces cerevisiae [3], 0.0234.
Consider `N#Cc1nc(Cc2cccc3ccccc23)oc1N1CCN(C(c2ccccc2)c2ccccc2)CC1`, for which the “Relative Growth” value in the assay with Saccharomyces cerevisiae [1] was 0.059; with Saccharomyces cerevisiae [2] it was -0.0026; with Saccharomyces cerevisiae [3] it was 0.0463.
For `CCOc1ccc(N2C(N)=NC(N)=NC2(C)C)cc1.Cl`, the “Relative Growth” value with Saccharomyces cerevisiae [1] is -0.1178; in the assay on Saccharomyces cerevisiae [2], -0.0058; with Saccharomyces cerevisiae [3], 0.0602.
Regarding `COc1cccc(Nc2nc(N)c3ccccc3n2)c1.Cl`, the “Relative Growth” value in the assay on Saccharomyces cerevisiae [1] is reported as 0.0154; in the assay on Saccharomyces cerevisiae [2], 0.0358; in the assay with Saccharomyces cerevisiae [3], -0.036.
Take `COC(=O)c1ccc(C2C3=C(O)CC(c4ccc(F)cc4)CC3=Nc3ccccc3N2C(=O)c2ccccc2)cc1` (configuration not stated): the “Relative Growth” value in the assay with Saccharomyces cerevisiae [1] is listed as 0.2377; with Saccharomyces cerevisiae [2], -0.0053; in the assay on Saccharomyces cerevisiae [3] it was 0.1245.
Taken in the same sequence, the figures for `CC(Oc1ccc(NC(=O)c2cccs2)cc1)C(=O)c1ccc(Cl)cc1` (configuration not stated) were 0.1664, 0.0426 and 0.0184.
Consider `CCOc1ccc(CN2CCN(CC(O)COc3ccc(OCC(O)CN4CCN(Cc5ccc(OCC)cc5)CC4)cc3)CC2)cc1` (configuration not stated), for which the “Relative Growth” value in the assay with Saccharomyces cerevisiae [1] is -0.1042; with Saccharomyces cerevisiae [2], -0.0814; with Saccharomyces cerevisiae [3] it was -0.2934.
Taken in the same sequence, the figures for `CCCCNc1nc(NC(C)(C)C)nc(NC(C)(C)C)n1` were -0.0768, 0.0174 and -0.1542.
With `Cl.c1ccc2c(NCCCCCCNc3c4c(nc5ccccc35)CCCC4)c3c(nc2c1)CCCC3`, the “Relative Growth” value is on record as -0.2454 in the assay on Saccharomyces cerevisiae [1], -0.0331 in the assay with Saccharomyces cerevisiae [2] and -0.2596 in the assay on Saccharomyces cerevisiae [3].
For `COc1ccc(CCn2c(=N)c(C(=O)NCc3cccnc3)cc3c(=O)n4cccc(C)c4nc32)cc1`, the “Relative Growth” value in the assay with Saccharomyces cerevisiae [1] is listed as 0.0391; in the assay on Saccharomyces cerevisiae [2] it was 0.0999; in the assay with Saccharomyces cerevisiae [3], -0.1242.
Turning to `Cl.Cn1c(=O)n(C)c2cc(CNCCNc3ccnc4cc(Cl)ccc34)ccc21`, the “Relative Growth” value was 0.301 in the assay on Saccharomyces cerevisiae [1], -0.0297 with Saccharomyces cerevisiae [2] and 0.2785 with Saccharomyces cerevisiae [3].
Take `Cc1cc(Nc2ccc(OCc3ccccc3)cc2)nc2cc(O)ccc12`: the “Relative Growth” value is on record as -0.1895 in the assay with Saccharomyces cerevisiae [1], 0.0868 in the assay on Saccharomyces cerevisiae [2] and 0.3239 in the assay with Saccharomyces cerevisiae [3].
With `COc1ccc(Nc2cc(C)nc(NCc3ccccc3)n2)cc1`, the “Relative Growth” value is on record as 0.0189 with Saccharomyces cerevisiae [1], 0.0201 in the assay on Saccharomyces cerevisiae [2] and 0.0325 in the assay with Saccharomyces cerevisiae [3].
As to `O=C(Nc1ccc(-c2nc3cc(NC(=O)c4ccc(Cl)cc4)ccc3[nH]2)cc1)c1ccc(Cl)cc1`, the “Relative Growth” value was 0.0064 in the assay with Saccharomyces cerevisiae [1], -0.0297 in the assay with Saccharomyces cerevisiae [2] and 0.0694 in the assay on Saccharomyces cerevisiae [3].
On to `OC(Cn1nnc2ccccc21)Cn1c2ccc(Br)cc2c2cc(Br)ccc21` (configuration not stated), for which the “Relative Growth” value with Saccharomyces cerevisiae [1] was 0.0887; in the assay with Saccharomyces cerevisiae [2], 0.0859; with Saccharomyces cerevisiae [3], 0.1229.
With `Cc1ccc2cc3c(N)c4c(C)ccc(C)c4nc3nc2c1`, the “Relative Growth” value in the assay on Saccharomyces cerevisiae [1] was 0.1003; in the assay on Saccharomyces cerevisiae [2], 0.0134; with Saccharomyces cerevisiae [3], 0.0509.
The matching figures for `O=C(Nc1ccc(C23CC4CC(CC(c5ccccc5)(C4)C2)C3)cc1)c1cccs1`: -0.46, -1.0024 and -0.1427.
For the compound `Cc1ccc(Nc2nc(N)c3ccccc3n2)cc1Cl`, the entries for the “Relative Growth” value with Saccharomyces cerevisiae [1], in the assay on Saccharomyces cerevisiae [2] and in the assay with Saccharomyces cerevisiae [3] were -0.1031, -0.0022 and -0.1803, respectively.
For the compound `CCc1ccc(CNCC(O)c2ccccc2)cc1.Cl` (configuration not stated), the results for the “Relative Growth” value in the assay on Saccharomyces cerevisiae [1], in the assay with Saccharomyces cerevisiae [2] and with Saccharomyces cerevisiae [3] were -0.0182, -0.1772 and -0.0955, respectively.
Regarding `CC(C)(C)c1ccc(C(=O)Nc2c3c(nn2-c2cccc(Cl)c2)CSC3)cc1`, the “Relative Growth” value is -0.3492 with Saccharomyces cerevisiae [1], -0.0819 with Saccharomyces cerevisiae [2] and -0.291 with Saccharomyces cerevisiae [3].
The matching figures for `COc1cc(CNCCc2ccc(Cl)cc2)cc(OC)c1O`: 0.0037, 0.0063 and -0.0938.
On to `CCOc1ccc(Nc2ccnc3cc(Cl)ccc23)cc1`, for which the results for the “Relative Growth” value in the assay with Saccharomyces cerevisiae [1], with Saccharomyces cerevisiae [2] and in the assay on Saccharomyces cerevisiae [3] were 0.0274, 0.0185 and 0.0427, respectively.
Turning to `COc1ccc(CN2CCN(Cc3ccccc3)CC2)c(O)c1`, the “Relative Growth” value in the assay with Saccharomyces cerevisiae [1] is recorded as 0.0478; in the assay with Saccharomyces cerevisiae [2], -0.0119; in the assay with Saccharomyces cerevisiae [3], 0.0718.
As for `CCOc1ccc(Nc2c3ccccc3nc3ccccc23)cc1.Cl`, the “Relative Growth” value with Saccharomyces cerevisiae [1] is 0.0198; with Saccharomyces cerevisiae [2] it was -0.0047; in the assay on Saccharomyces cerevisiae [3], 0.0301.
For the compound `CCOc1ccc2nc(C)cc(Nc3ccc(Br)cc3)c2c1`, the “Relative Growth” value with Saccharomyces cerevisiae [1] is recorded as -0.9176; in the assay with Saccharomyces cerevisiae [2], 0.0466; in the assay with Saccharomyces cerevisiae [3] it was 0.014.
Turning to `COc1ccc2sc(N(Cc3cccnc3)C(=O)c3ccc(C#N)cc3)nc2c1`, the entries for the “Relative Growth” value in the assay on Saccharomyces cerevisiae [1], in the assay with Saccharomyces cerevisiae [2] and in the assay with Saccharomyces cerevisiae [3] were -0.1064, -0.0469 and -0.5371, respectively.
In the case of `CCOC(=O)C1=CN(C)C=C(C(=O)OCC)C1c1cc(Br)c(OCC)c(OC)c1`, the entries for the “Relative Growth” value in the assay on Saccharomyces cerevisiae [1], with Saccharomyces cerevisiae [2] and with Saccharomyces cerevisiae [3] were 0.2106, -0.1817 and -0.4757, respectively.
On to `CC(C)(C)c1ccc(C2CC3=Nc4ccccc4N(C(=O)c4ccccc4Cl)C(c4ccc(F)cc4)C3=C(O)C2)cc1` (configuration not stated), for which the results for the “Relative Growth” value in the assay with Saccharomyces cerevisiae [1], in the assay on Saccharomyces cerevisiae [2] and in the assay on Saccharomyces cerevisiae [3] were -0.0515, -0.0874 and -0.3538, respectively.
Taken in the same sequence, the figures for `CN1CCN(c2nc(Nc3ccc(O)cc3)nc3ccccc23)CC1.Cl` were -0.0206, -0.0029 and -0.0432.
In the case of `CCCCc1c(CCC)c(=N)c2ccccc2n1C.I`, the “Relative Growth” value with Saccharomyces cerevisiae [1] is reported as 0.0105; in the assay on Saccharomyces cerevisiae [2] it was -0.0798; in the assay with Saccharomyces cerevisiae [3], 0.0643.

These data come from ChEMBL document CHEMBL3301546, “MMV Malaria Box yeast growth screening”.
